According to patent US5674979A, “Agent for inhibiting symmetrical proteins, in particular enzymes” (priority 1989, dated 1997):
Where two headings read alike, the source gives them in different places. Non-standard residues stand in square brackets, D forms with d. Residues, ends and D or L forms follow the SMILES beside them.

Tests used:
HIV-1 [1] = details: H9 cells
Method: Compounds (a), (b), (c), (d) were tested in the molarity range from 0.1 μM to 1000 μM. Infectivity tests were carried out as follows: an HIV-1 suspension containing 10^2 infectious units was absorbed on to 5×10^6 H9 cells in a volume of 1 ml for 2 hours at 4° C. After this time, 9 ml of tissue culture medium with the required inhibitor concentration was added. The medium was exchanged with fresh medium plus inhibitor daily. Two control cultures were also prepared, one without inhibitor to determine the normal virus replication rate, the other containing inhibitor but no virus, to determine whether the substances were cytotoxic for H9 cells. […] The amount of virus antigen produced by the infected cells was measured daily using Elisa for eight days, indicating the amount of HIV-1 antigen in the tissue culture medium. After this, the cells were pelleted, washed in medium without inhibitor, and further incubated in inhibitor-less medium. The antigen production was measured on days 9 and 12 (ie 1 and […] after removal of the inhibitor). Virus production was also measured on days 7, 8, 9, and 12 by determining the amount of reverse transcriptase in the supernatant of the cell medium.

HIV-1 [2] = system: HIV-1
Method: Infectivity tests were carried out as follows: an HIV-1 suspension containing 10^2 infectious units was absorbed on to 5×10^6 H9 cells in a volume of 1 ml for 2 hours at 4° C. After this time, 9 ml of tissue culture medium with the required inhibitor concentration was added. The medium was exchanged with fresh medium plus inhibitor daily. Two control cultures were also prepared, one without inhibitor to determine the normal virus replication rate, the other containing inhibitor but no virus, to determine whether the substances were cytotoxic for H9 cells. […] The amount of virus antigen produced by the infected cells was measured daily using Elisa for eight days, indicating the amount of HIV-1 antigen in the tissue culture medium. After this, the cells were pelleted, washed in medium without inhibitor, and further incubated in inhibitor-less medium. The antigen production was measured on days 9 and 12 (ie 1 and 3 days after removal of the inhibitor). Virus production was also measured on days 7, 8, 9, and 12 by determining the amount of reverse transcriptase in the supernatant of the cell medium.

[3] = 0,1 μM, day 9 post infection, no inhibitor (after removal)
[4] = 0,1 μM, day 12 post infection, no inhibitor (after removal)
[5] = 1 μM, day 9 post infection, no inhibitor (after removal)
[6] = 1 μM, day 12 post infection, no inhibitor (after removal)
[7] = 10 μM, day 9 post infection, no inhibitor (after removal)
[8] = 10 μM, day 12 post infection, no inhibitor (after removal)
[9] = 100 μM, day 9 post infection, no inhibitor (after removal)
[10] = 100 μM, day 12 post infection, no inhibitor (after removal)
[11] = 1000 μM, day 9 post infection, no inhibitor (after removal)
[12] = 1000 μM, day 12 post infection, no inhibitor (after removal)

CC(C)C[C@@H](NC(=O)[C@H](N)CC(N)=O)C(=O)N[C@@H](C(=O)NCC(=O)O)[C@H](C)O [A, H-(D)-Asn-(D)-Leu-(D)-Thr-Gly-OH] (H-[dN][dL][dT]G-OH)
HIV-1 antigen production as measured in antigen capture ELISA (HIV-1 [1]; 0,1 μM, day 1 post infection): 0,060 o. D. | HIV-1 antigen production as measured in antigen capture ELISA (HIV-1 [1]; 0,1 μM, day 2 post infection): 0,066 o. D. | HIV-1 antigen production as measured in antigen capture ELISA (HIV-1 [1]; 0,1 μM, day 3 post infection): 0,062 o. D. | HIV-1 antigen production as measured in antigen capture ELISA (HIV-1 [1]; 0,1 μM, day 4 post infection): 0,055 o. D. | HIV-1 antigen production as measured in antigen capture ELISA (HIV-1 [1]; 0,1 μM, day 5 post infection): 0,058 o. D. | HIV-1 antigen production as measured in antigen capture ELISA (HIV-1 [1]; 0,1 μM, day 6 post infection): 0,181 o. D. | HIV-1 antigen production as measured in antigen capture ELISA (HIV-1 [1]; 0,1 μM, day 7 post infection): 0,363 o. D. | HIV-1 antigen production as measured in antigen capture ELISA (HIV-1 [1]; 0,1 μM, day 8 post infection): 0,478 o. D. | HIV-1 antigen production as measured in antigen capture ELISA (HIV-1 [1]; [3]): 0,737 o. D. | HIV-1 antigen production as measured in antigen capture ELISA (HIV-1 [1]; [4]): 1,037 o. D. | HIV-1 antigen production as measured in antigen capture ELISA (HIV-1 [1]; 1 μM, day 1 post infection): 0,064 o. D. | HIV-1 antigen production as measured in antigen capture ELISA (HIV-1 [1]; 1 μM, day 2 post infection): 0,060 o. D. | HIV-1 antigen production as measured in antigen capture ELISA (HIV-1 [1]; 1 μM, day 3 post infection): 0,075 o. D. | HIV-1 antigen production as measured in antigen capture ELISA (HIV-1 [1]; 1 μM, day 4 post infection): 0,057 o. D. | HIV-1 antigen production as measured in antigen capture ELISA (HIV-1 [1]; 1 μM, day 5 post infection): 0,053 o. D. | HIV-1 antigen production as measured in antigen capture ELISA (HIV-1 [1]; 1 μM, day 6 post infection): 0,136 o. D. | HIV-1 antigen production as measured in antigen capture ELISA (HIV-1 [1]; 1 μM, day 7 post infection): 0,213 o. D. | HIV-1 antigen production as measured in antigen capture ELISA (HIV-1 [1]; 1 μM, day 8 post infection): 0,394 o. D. | HIV-1 antigen production as measured in antigen capture ELISA (HIV-1 [1]; [5]): 0,694 o. D. | HIV-1 antigen production as measured in antigen capture ELISA (HIV-1 [1]; [6]): 1,065 o. D. | HIV-1 antigen production as measured in antigen capture ELISA (HIV-1 [1]; 10 μM, day 1 post infection): 0,061 o. D. | HIV-1 antigen production as measured in antigen capture ELISA (HIV-1 [1]; 10 μM, day 2 post infection): 0,075 o. D. | HIV-1 antigen production as measured in antigen capture ELISA (HIV-1 [1]; 10 μM, day 3 post infection): 0,069 o. D. | HIV-1 antigen production as measured in antigen capture ELISA (HIV-1 [1]; 10 μM, day 4 post infection): 0,044 o. D. | HIV-1 antigen production as measured in antigen capture ELISA (HIV-1 [1]; 10 μM, day 5 post infection): 0,064 o. D. | HIV-1 antigen production as measured in antigen capture ELISA (HIV-1 [1]; 10 μM, day 6 post infection): 0,140 o. D. | HIV-1 antigen production as measured in antigen capture ELISA (HIV-1 [1]; 10 μM, day 7 post infection): 0,256 o. D. | HIV-1 antigen production as measured in antigen capture ELISA (HIV-1 [1]; 10 μM, day 8 post infection): 0,499 o. D. | HIV-1 antigen production as measured in antigen capture ELISA (HIV-1 [1]; [7]): 0,727 o. D. | HIV-1 antigen production as measured in antigen capture ELISA (HIV-1 [1]; [8]): 1,003 o. D. | HIV-1 antigen production as measured in antigen capture ELISA (HIV-1 [1]; 100 μM, day 1 post infection): 0,068 o. D. | HIV-1 antigen production as measured in antigen capture ELISA (HIV-1 [1]; 100 μM, day 2 post infection): 0,064 o. D. | HIV-1 antigen production as measured in antigen capture ELISA (HIV-1 [1]; 100 μM, day 3 post infection): 0,065 o. D. | HIV-1 antigen production as measured in antigen capture ELISA (HIV-1 [1]; 100 μM, day 4 post infection): 0,053 o. D. | HIV-1 antigen production as measured in antigen capture ELISA (HIV-1 [1]; 100 μM, day 5 post infection): 0,057 o. D. | HIV-1 antigen production as measured in antigen capture ELISA (HIV-1 [1]; 100 μM, day 6 post infection): 0,070 o. D. | HIV-1 antigen production as measured in antigen capture ELISA (HIV-1 [1]; 100 μM, day 7 post infection): 0,361 o. D. | HIV-1 antigen production as measured in antigen capture ELISA (HIV-1 [1]; 100 μM, day 8 post infection): 0,374 o. D. | HIV-1 antigen production as measured in antigen capture ELISA (HIV-1 [1]; [9]): 0,915 o. D. | HIV-1 antigen production as measured in antigen capture ELISA (HIV-1 [1]; [10]): 1,013 o. D. | HIV-1 antigen production as measured in antigen capture ELISA (HIV-1 [1]; 1000 μM, day 1 post infection): 0,087 o. D. | HIV-1 antigen production as measured in antigen capture ELISA (HIV-1 [1]; 1000 μM, day 2 post infection): 0,058 o. D. | HIV-1 antigen production as measured in antigen capture ELISA (HIV-1 [1]; 1000 μM, day 3 post infection): 0,073 o. D. | HIV-1 antigen production as measured in antigen capture ELISA (HIV-1 [1]; 1000 μM, day 4 post infection): 0,054 o. D. | HIV-1 antigen production as measured in antigen capture ELISA (HIV-1 [1]; 1000 μM, day 5 post infection): 0,056 o. D. | HIV-1 antigen production as measured in antigen capture ELISA (HIV-1 [1]; 1000 μM, day 6 post infection): 0,102 o. D. | HIV-1 antigen production as measured in antigen capture ELISA (HIV-1 [1]; 1000 μM, day 7 post infection): 0,286 o. D. | HIV-1 antigen production as measured in antigen capture ELISA (HIV-1 [1]; 1000 μM, day 8 post infection): 0,597 o. D. | HIV-1 antigen production as measured in antigen capture ELISA (HIV-1 [1]; [11]): 0,899 o. D. | HIV-1 antigen production as measured in antigen capture ELISA (HIV-1 [1]; [12]): 1,054 o. D. | Reverse Transkriptase Determination (HIV-1 [2]; 0,1 μM, day 7 post infection): 3929 epm/ml | Reverse Transkriptase Determination (HIV-1 [2]; 0,1 μM, day 8 post infection): 6914 epm/ml | Reverse Transkriptase Determination (HIV-1 [2]; [3]): 14455 epm/ml | Reverse Transkriptase Determination (HIV-1 [2]; [4]): 137470 epm/ml | Reverse Transkriptase Determination (HIV-1 [2]; 1 μM, day 7 post infection): 4041 epm/ml | Reverse Transkriptase Determination (HIV-1 [2]; 1 μM, day 8 post infection): 7460 epm/ml | Reverse Transkriptase Determination (HIV-1 [2]; [5]): 9502 epm/ml | Reverse Transkriptase Determination (HIV-1 [2]; [6]): 163130 epm/ml | Reverse Transkriptase Determination (HIV-1 [2]; 10 μM, day 7 post infection): 4615 epm/ml | Reverse Transkriptase Determination (HIV-1 [2]; 10 μM, day 8 post infection): 5381 epm/ml | Reverse Transkriptase Determination (HIV-1 [2]; [7]): 12517 epm/ml | Reverse Transkriptase Determination (HIV-1 [2]; [8]): 117910 epm/ml | Reverse Transkriptase Determination (HIV-1 [2]; 100 μM, day 7 post infection): 5378 epm/ml | Reverse Transkriptase Determination (HIV-1 [2]; 100 μM, day 8 post infection): 6407 epm/ml | Reverse Transkriptase Determination (HIV-1 [2]; [9]): 12893 epm/ml | Reverse Transkriptase Determination (HIV-1 [2]; [10]): 142240 epm/ml | Reverse Transkriptase Determination (HIV-1 [2]; 1000 μM, day 7 post infection): 1529 epm/ml | Reverse Transkriptase Determination (HIV-1 [2]; 1000 μM, day 8 post infection): 2121 epm/ml | Reverse Transkriptase Determination (HIV-1 [2]; [11]): 1550 epm/ml | Reverse Transkriptase Determination (HIV-1 [2]; [12]): 104660 epm/ml
